These results are taken from ChEMBL document CHEMBL1129097, “1-benzyl-3-thioaryl-2-carboxyindoles as potent non-peptide endothelin antagonists” (Bioorg Med Chem Lett, 1996).

Experiment [1] addresses T1, Endothelin-1 receptor (Homo sapiens, UniProt P25101).
T1 sequence (P25101 whole entry): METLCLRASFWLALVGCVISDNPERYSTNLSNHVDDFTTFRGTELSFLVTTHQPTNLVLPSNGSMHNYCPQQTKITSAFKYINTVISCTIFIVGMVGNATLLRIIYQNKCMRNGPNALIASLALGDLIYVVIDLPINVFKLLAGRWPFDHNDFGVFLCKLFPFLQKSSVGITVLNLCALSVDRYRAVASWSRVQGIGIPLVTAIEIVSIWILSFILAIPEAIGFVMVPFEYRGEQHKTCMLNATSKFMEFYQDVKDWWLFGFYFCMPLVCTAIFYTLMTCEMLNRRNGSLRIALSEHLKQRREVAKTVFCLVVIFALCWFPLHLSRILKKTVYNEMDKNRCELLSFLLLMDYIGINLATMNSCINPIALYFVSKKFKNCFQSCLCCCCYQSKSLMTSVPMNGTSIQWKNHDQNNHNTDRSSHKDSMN
In words: Affinity for human endothelin A receptor expressed in Ltk cells. It is filed as cell-based.

Experiment [2] has as its target T2, Endothelin receptor type B (Homo sapiens, UniProt P24530).
T2 sequence (P24530 whole entry): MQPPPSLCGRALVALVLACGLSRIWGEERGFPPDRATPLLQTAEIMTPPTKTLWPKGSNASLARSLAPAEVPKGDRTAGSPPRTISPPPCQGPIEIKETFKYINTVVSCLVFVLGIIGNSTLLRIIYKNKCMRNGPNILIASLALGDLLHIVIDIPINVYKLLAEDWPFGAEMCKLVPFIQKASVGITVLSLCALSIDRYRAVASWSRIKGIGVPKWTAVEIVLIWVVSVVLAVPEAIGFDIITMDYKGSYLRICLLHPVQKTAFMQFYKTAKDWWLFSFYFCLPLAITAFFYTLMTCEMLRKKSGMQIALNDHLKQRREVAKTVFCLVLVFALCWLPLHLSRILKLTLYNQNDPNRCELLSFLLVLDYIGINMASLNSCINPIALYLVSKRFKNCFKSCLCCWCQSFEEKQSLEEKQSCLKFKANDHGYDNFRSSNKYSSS
In words: Affinity for human endothelin B receptor expressed in CHO-K1 cells. The format is cell-based.

For experiment [3], the target named is T3, Endothelin receptor, ET-A/ET-B (Homo sapiens, UniProt P24530+P25101).
T3 sequence (P24530 whole entry): T2 sequence (P24530 whole entry)
T3 sequence (P25101 whole entry): T1 sequence (P25101 whole entry)
In words: In vitro inhibition of ET-1 stimulated vasoconstriction in rabbit femoral artery. The format is functional, tissue-based, Oryctolagus cuniculus. The note with it: target entry is the homologue from another species.

For experiment [4], the target named is T2, Endothelin receptor type B. As to the kind of experiment: Inhibition of sarafotoxin-6c stimulated vasoconstriction in rabbit pulmonary artery. The format is functional, Oryctolagus cuniculus. The conditions noted are these: target entry is the homologue from another species; read-out: pA2 (converted).

By IC50 is commonly meant the concentration that inhibits the measured activity by half. Low readings indicate greater potency in that assay, high ones weaker potency in that assay. With `CC(C)Oc1c(C(=O)O)sc2ccc(OCc3ccccc3)cc12`, the half-maximal inhibitory concentration (IC50) was 8800 nM in experiment [1] and above 100000 nM in experiment [2].

In experiment [2], `COc1cccc(Sc2c(C(=O)O)n(Cc3ccc4c(c3)OCO4)c3cc4c(cc23)OCO4)c1` showed an IC50 of 760 nM.

On to `COc1cccc(Sc2c(C(=O)O)sc3ccccc23)c1`, for which the IC50 in experiment [2] is above 25000 nM.

On to `COc1cccc(Sc2c(C(=O)O)n(Cc3ccccc3)c3cc(OC)c(OC)cc23)c1`, for which the figures for the IC50 in experiment [1] and in experiment [2] were 160 nM and 870 nM, respectively.

On to `COc1cccc(Sc2c(C(=O)O)n(Cc3cc(OC)c4c(c3)OCO4)c3cc4c(cc23)OCO4)c1`, for which inhibition in experiment [2] was half-maximal at 29000 nM (IC50).

On to `O=C(O)c1c(Sc2ccc3c(c2)OCO3)c2cc3c(cc2n1Cc1ccc2c(c1)OCO2)OCO3`, for which the concentration for half-maximal inhibition (IC50) in experiment [1] stood at 100 nM; in experiment [2] it was 420 nM.

For the compound `COc1cccc(Sc2c(C(=O)O)n(Cc3ccc4c(c3)OCO4)c3ccccc23)c1`, in experiment [1], the half-inhibitory concentration (IC50) was 86 nM.

Turning to `COc1cccc(Sc2c(C(=O)O)n(Cc3ccc4c(c3)OCO4)c3cc(OCc4ccccc4)c(OC)cc23)c1`, the IC50 in experiment [1] was 20000 nM; in experiment [2], 1600 nM.

Usually pA2 stands for the negative logarithm of the molar antagonist concentration that doubles the agonist concentration needed for the same response. Read a low pA2 as lower antagonist potency. As for `COc1ccc(Sc2c(C(=O)O)n(Cc3ccc4c(c3)OCO4)c3cc4c(cc23)OCO4)cc1OC`, in experiment [3], the pA2 came to 6.3. Besides, the concentration for half-maximal inhibition (IC50) in experiment [1] was 41 nM. The Kb in experiment [4] is 631 nM.

Consider `COc1cccc(Sc2c(C(=O)O)n(Cc3ccccc3)c3ccccc23)c1`, for which the midpoint of inhibition in experiment [2], the IC50, lay at 15000 nM.

`COc1cc2c(Sc3ccc4c(c3)OCO4)c(C(=O)O)n(Cc3ccc4c(c3)OCO4)c2cc1OCc1ccccc1`: the IC50 in experiment [1] was determined as 620 nM; in experiment [2], 490 nM.

In experiment [2], `COc1cccc(Sc2c(C(=O)O)oc3ccccc23)c1` returned an IC50 above 25000 nM.

Take `COc1cc2c(Sc3cc(OC)c(OC)c(OC)c3)c(C(=O)O)n(Cc3ccc4c(c3)OCO4)c2cc1OCc1ccccc1`: the IC50 in experiment [1] and in experiment [2] was above 2500 nM in each case.
